Measurements: the CheMixHub viscosity set
± gives the uncertainty stated by the source.

Assay: xn = mol fraction of the nth substance listed

O=CN1CCOCC1 + Cc1ccccc1
298.15 K, 101.3 kPa
Settings	viscosity [mPa·s]
x2 = 0.01784	7.177 ± 0.049
x2 = 0.06829	6.102 ± 0.043
x2 = 0.1881	4.224 ± 0.032
x2 = 0.2675	3.336 ± 0.025
x2 = 0.3466	2.653 ± 0.021
x2 = 0.4247	2.155 ± 0.017
x2 = 0.5094	1.701 ± 0.014
x2 = 0.5956	1.359 ± 0.011
x2 = 0.6849	1.099 ± 0.009
x2 = 0.7722	0.879 ± 0.007
x2 = 0.8479	0.759 ± 0.007
x2 = 0.9178	0.646 ± 0.006

OCCO + CN1CCCC1=O
101.33 kPa
Settings	viscosity [mPa·s]
298.15 K, x2 = 0.04751	15.44 ± 0.32
298.15 K, x2 = 0.09916	13.78 ± 0.29
298.15 K, x2 = 0.1991	10.76 ± 0.23
298.15 K, x2 = 0.3018	8.242 ± 0.18
298.15 K, x2 = 0.4012	6.415 ± 0.15
298.15 K, x2 = 0.5073	4.977 ± 0.12
298.15 K, x2 = 0.6067	3.952 ± 0.091
298.15 K, x2 = 0.7014	3.171 ± 0.07
298.15 K, x2 = 0.8018	2.527 ± 0.055
298.15 K, x2 = 0.9001	2.066 ± 0.044
298.15 K, x2 = 0.9545	1.852 ± 0.039
308.15 K, x2 = 0.04799	10.58 ± 0.22
308.15 K, x2 = 0.1004	9.465 ± 0.2
308.15 K, x2 = 0.2025	7.514 ± 0.16
308.15 K, x2 = 0.3042	5.982 ± 0.13
308.15 K, x2 = 0.4097	4.697 ± 0.11
308.15 K, x2 = 0.5032	3.855 ± 0.09
308.15 K, x2 = 0.6042	3.122 ± 0.071
308.15 K, x2 = 0.6992	2.566 ± 0.056
308.15 K, x2 = 0.7967	2.112 ± 0.045
308.15 K, x2 = 0.9027	1.716 ± 0.037
308.15 K, x2 = 0.9599	1.543 ± 0.033
318.15 K, x2 = 0.04516	7.524 ± 0.16
318.15 K, x2 = 0.1031	6.736 ± 0.14
318.15 K, x2 = 0.1996	5.567 ± 0.12
318.15 K, x2 = 0.2999	4.538 ± 0.099
318.15 K, x2 = 0.4047	3.687 ± 0.083
318.15 K, x2 = 0.5078	3.015 ± 0.07
318.15 K, x2 = 0.6054	2.505 ± 0.056
318.15 K, x2 = 0.6952	2.124 ± 0.046
318.15 K, x2 = 0.7968	1.771 ± 0.038
318.15 K, x2 = 0.8899	1.498 ± 0.032
318.15 K, x2 = 0.9612	1.327 ± 0.028

C=CCN=C=S + CN(C)c1ccccc1
303.15 K, 101 kPa
Settings	viscosity [mPa·s]
x1 = 0.2324	1.032 ± 0.027
x1 = 0.4846	0.884 ± 0.023
x1 = 0.7377	0.761 ± 0.02

OCCO + CCCCO
298 K, 101.33 kPa
Settings	viscosity [mPa·s]
x1 = 0.1527	3.18 ± 0.03
x1 = 0.5229	6.05 ± 0.04
x1 = 0.7115	8.75 ± 0.06
x1 = 0.868	12.33 ± 0.07

C=CCN=C=S + NCCN
313.15 K, 100 kPa
Settings	viscosity [mPa·s]
x1 = 0.15	2.956 ± 0.025
x1 = 0.2794	6.678 ± 0.091
x1 = 0.4515	71.46 ± 1.7
x1 = 0.4948	155.4 ± 7.1
x1 = 0.5496	648.5 ± 58
x1 = 0.5994	2470 ± 440
x1 = 0.667	61100
x1 = 0.7502	281.4 ± 82
x1 = 0.851	55.46 ± 1.1

CCOC(=O)CC(C)=O + CCCCCO
viscosity [mPa·s], 100 kPa
Settings	x1 = 0.0902	x1 = 0.1791	x1 = 0.2695	x1 = 0.3621	x1 = 0.4424	x1 = 0.5633	x1 = 0.6447	x1 = 0.7739	x1 = 0.8864
293.15 K	2.988 ± 0.18	2.424 ± 0.15	2.132 ± 0.13	1.935 ± 0.12	1.8 ± 0.11	1.67 ± 0.1	1.635 ± 0.099	1.603 ± 0.097	1.599 ± 0.097
298.15 K	2.691 ± 0.16	2.191 ± 0.13	1.897 ± 0.11	1.705 ± 0.1	1.602 ± 0.097	1.52 ± 0.092	1.491 ± 0.09	1.481 ± 0.089	1.468 ± 0.089

O=CN1CCOCC1 + Cc1cccc(C)c1
viscosity [mPa·s]
Settings	298.15 K	303.15 K	313.15 K	323.15 K
101 kPa, x2 = 0.1	5.508 ± 0.12	4.826 ± 0.11	3.793 ± 0.084	3.081 ± 0.069
101 kPa, x2 = 0.2	4.047 ± 0.089	3.589 ± 0.08	2.886 ± 0.065	2.4 ± 0.055
101 kPa, x2 = 0.3	3.049 ± 0.068	2.741 ± 0.062	2.257 ± 0.052	1.905 ± 0.044
101 kPa, x2 = 0.4	2.34 ± 0.053	2.132 ± 0.049	1.778 ± 0.042	1.522 ± 0.036
101 kPa, x2 = 0.5	1.792 ± 0.042	1.646 ± 0.039	1.381 ± 0.033	1.192 ± 0.029
101 kPa, x2 = 0.6	1.38 ± 0.033	1.267 ± 0.031	1.076 ± 0.026	0.9311 ± 0.023
101 kPa, x2 = 0.7	1.082 ± 0.027	1.002 ± 0.025	0.8623 ± 0.022	0.7574 ± 0.019
101 kPa, x2 = 0.8	0.8664 ± 0.022	0.8124 ± 0.021	0.708 ± 0.018	0.6298 ± 0.017
101 kPa, x2 = 0.9	0.7069 ± 0.018	0.6603 ± 0.017	0.586 ± 0.016	0.5286 ± 0.015
101.3 kPa, x2 = 0.03245	7.014 ± 0.048	–	–	–
101.3 kPa, x2 = 0.06364	6.442 ± 0.045	–	–	–
101.3 kPa, x2 = 0.09907	5.89 ± 0.042	–	–	–
101.3 kPa, x2 = 0.1608	5.016 ± 0.037	–	–	–
101.3 kPa, x2 = 0.2806	3.707 ± 0.028	–	–	–
101.3 kPa, x2 = 0.3561	3.033 ± 0.023	–	–	–
101.3 kPa, x2 = 0.4744	2.278 ± 0.018	–	–	–
101.3 kPa, x2 = 0.5701	1.829 ± 0.015	–	–	–
101.3 kPa, x2 = 0.6556	1.511 ± 0.012	–	–	–
101.3 kPa, x2 = 0.6984	1.38 ± 0.011	–	–	–
101.3 kPa, x2 = 0.7819	1.159 ± 0.01	–	–	–
101.3 kPa, x2 = 0.876	0.961 ± 0.008	–	–	–
101.3 kPa, x2 = 0.9337	0.875 ± 0.007	–	–	–

NCc1ccccc1 + C1CCOC1
303.15 K, 101 kPa
Settings	viscosity [mPa·s]
x1 = 0.0768	0.522 ± 0.011
x1 = 0.1577	0.576 ± 0.012
x1 = 0.2429	0.636 ± 0.014
x1 = 0.333	0.705 ± 0.015
x1 = 0.4282	0.785 ± 0.017
x1 = 0.529	0.876 ± 0.019
x1 = 0.636	0.981 ± 0.021
x1 = 0.7497	1.104 ± 0.024
x1 = 0.8708	1.247 ± 0.027

NCc1ccccc1 + CCC(C)(C)O
viscosity [mPa·s], 101.33 kPa
Settings	x1 = 0.1	x1 = 0.2001	x1 = 0.3	x1 = 0.4	x1 = 0.5	x1 = 0.6	x1 = 0.6999	x1 = 0.7994	x1 = 0.8998
298.15 K	3.228 ± 0.041	2.988 ± 0.038	2.781 ± 0.036	2.576 ± 0.033	2.394 ± 0.03	2.223 ± 0.028	2.067 ± 0.026	1.927 ± 0.024	1.792 ± 0.022
303.15 K	2.641 ± 0.034	2.463 ± 0.032	2.289 ± 0.03	2.143 ± 0.028	1.995 ± 0.026	1.882 ± 0.024	1.773 ± 0.022	1.668 ± 0.021	1.578 ± 0.019
308.15 K	2.193 ± 0.029	2.043 ± 0.027	1.919 ± 0.025	1.793 ± 0.023	1.696 ± 0.022	1.609 ± 0.021	1.533 ± 0.019	1.468 ± 0.018	1.422 ± 0.018

CCCCCCCCCCCCCCCCCC + CCCCCCC
101 kPa, x2 = 0.5
Settings	viscosity [mPa·s]
298 K	1.73 ± 0.045
318 K	1.241 ± 0.033
